This is an account of results in paper PMC12466706 (Antioxidants, 2025).

As usually defined, the EC50 is the concentration that produces a half-maximal response.

For data set [1], the system named is DENV. In words: microbe, parasite or virus in culture. It counts as cell-based, Dengue virus (DENV-2 16681 strain).
Experiment in data set [2]: not given
The source holds these as a separate data set.

Data set [3] concerns DENV. In words: microbe, parasite or virus in culture. It counts as cell-based, Dengue virus (DENV-2 16681 strain). This is another data set of the same source.
Data set [4] concerns DENV. In words: microbe, parasite or virus in culture. The settings on record: for EC50: read-out: Replication EC50. The format is cell-based, Dengue virus (DENV-2 16681 strain).
Data set [5] deals with pBR322 supercoiled plasmid DNA. The format is biochemical, Escherichia coli.
The test system of a further data set is YFV. In words: microbe, parasite or virus in culture. The settings on record: read-out: EC50 against YFV replication. The format is cell-based, Yellow fever virus (YFV-17D).
A short description of the next data set: in vitro. As to conditions: human.
The next data set relates to Huh7 cells. As to conditions: human.
[6] abbreviates: Dengue virus, 72 h, read-out: Entry + Replicaion EC50.
The mark [7] stands for this setting: Dengue virus, Huh-7, 72 h, read-out: Entry + Replication EC50.
[8] abbreviates: Dengue virus, Huh-7, 72 h, read-out: Infectivity EC50.
Setting [9] is: Dengue virus, Huh-7, read-out: Infectivity EC50.

The structures appear in SMILES notation. Where two headings read alike, the source gives them in different places.

On to `COc1cc(/C=C/C(=O)O)ccc1O` [Ferulic acid, ferulic acid], for which the “ABTS radical scavenging activity IC50” value amounted to 2.51 µg/mL. In the data set on DENV [1], the “Entry + Replicaion EC50” value is more than 19.41 µg/mL. In the data set with DENV [1] (read-out: Entry + Replication EC50), the EC50 was more than 100 µM. Moreover, in data set [2], the “DPPH scavenging activity IC50” value came to 10.14 µg/mL. The “Infectivity EC50” value in the data set with DENV [3] is more than 19.41 µg/mL. Moreover, the EC50 in the data set on DENV [3] (read-out: Infectivity EC50) was more than 100 µM. For the same compound, in the data set with DENV [4], the “Replication EC50” value was more than 19.41 µg/mL and the EC50 was more than 100 µM. In addition, in data set [5], the “inhibition of DNA strand breakage” value was determined as 94.17%. Besides, in the data set with YFV, the EC50 is more than 100 µM.
As to `C[C@@H]1O[C@@H](OC[C@H]2O[C@@H](Oc3c(-c4ccc(O)c(O)c4)oc4cc(O)cc(O)c4c3=O)[C@H](O)[C@@H](O)[C@@H]2O)[C@H](O)[C@H](O)[C@H]1O` [Rutin, rutin], the “ABTS radical scavenging activity IC50” value is 4.54 µg/mL. Besides, the EC50 in the data set on DENV [1] (setting [6]) was more than 61 µg/mL. Further, in the data set with DENV [1] (setting [7]), the EC50 was more than 100 µM. Besides, in data set [2], the “DPPH scavenging activity IC50” value stood at 21.86 µg/mL. Further, in “in vitro”, the CC50 was more than 500 µM. In addition, in the data set with DENV [3] (setting [8]), the EC50 is more than 100 µM. Besides, the EC50 in the data set with DENV [3] (setting [9]) was more than 61 µg/mL. Also, the EC50 in the data set with DENV [4] (Dengue virus, Huh-7, 72 h) was more than 100 µM. In addition, the EC50 with DENV [4] (Dengue virus) is more than 61 µg/mL. The “inhibition of DNA strand breakage” value in data set [5] is 88.60%. The EC50 with YFV (Yellow fever virus, 72 h) is more than 100 µM.
For `O=c1c(O)c(-c2ccc(O)c(O)c2)oc2cc(O)cc(O)c12` [Quercetin, quercetin], the “ABTS radical scavenging activity IC50” value was 1.93 µg/mL. Moreover, the EC50 in the data set with DENV [1] (setting [6]) was found to be 32.1 µg/mL. In addition, the EC50 with DENV [1] (setting [7]) turned out to be 109 ± 17.6 µM. In data set [2], the “DPPH scavenging activity IC50” value is 8.05 µg/mL. Moreover, the EC50 with DENV [3] (setting [8]) was determined as 104 ± 1.49 µM. For the same compound, the EC50 with DENV [3] (setting [9]) came out at 31.4 µg/mL. Besides, in the data set on DENV [4] (Dengue virus, Huh-7, 72 h), the EC50 came to 58.5 ± 7.08 µM. Besides, the EC50 in the data set on DENV [4] (Dengue virus) came out at 17.7 µg/mL. The “inhibition of DNA strand breakage” value in data set [5] is on record as 96.52%. In the data set on YFV (Yellow fever virus, 72 h), the EC50 was more than 100 µM.
As for `O=C(O)/C=C/c1ccc(O)c(O)c1` [Caffeic acid, caffeic acid], the “ABTS radical scavenging activity IC50” value came to 1.28 µg/mL. For the same compound, the EC50 in the data set on DENV [1] (setting [6]) was more than 4.5 µg/mL. The concentration for a half-maximal effect (EC50) with DENV [1] (setting [7]) was more than 100 µM. The “DPPH scavenging activity IC50” value in data set [2] worked out at 6.37 µg/mL. For the same compound, the EC50 in the data set with DENV [3] (setting [8]) came to 51.5 ± 1.19 µM. For the same compound, in the data set with DENV [3] (setting [9]), the EC50 turned out to be 4.63 µg/mL. Also, in the data set with DENV [4] (Dengue virus, Huh-7, 72 h), the EC50 is 35.9 ± 1.88 µM. Besides, the “inhibition of DNA strand breakage” value in data set [5] was found to be 98.98%. The EC50 in the data set with YFV (Yellow fever virus, 72 h) is more than 100 µM.
As for `O=C(O)/C=C/c1ccc(O)cc1` [Coumaric acid, coumaric acid], the “ABTS radical scavenging activity IC50” value stood at 4.00 µg/mL. In the data set on DENV [1] (setting [6]), the EC50 stood at 7.87 µg/mL. The EC50 with DENV [1] (setting [7]) amounted to 48 ± 2.43 µM. Besides, in data set [2], the “DPPH scavenging activity IC50” value came to 21.17 µg/mL. In addition, the EC50 with DENV [3] (setting [8]) was 91.64 ± 0.4 µM. In the data set on DENV [3] (setting [9]), the EC50 was 15 µg/mL. Moreover, the EC50 in the data set on DENV [4] (Dengue virus, Huh-7, 72 h) was more than 100 µM. Further, in the data set with DENV [4] (Dengue virus), the EC50 was more than 16.4 µg/mL. Moreover, the “inhibition of DNA strand breakage” value in data set [5] is on record as 89.85%. Further, the EC50 in the data set on YFV (Yellow fever virus, 72 h) stood at 154 ± 29.8 µM.
`O=c1cc(-c2ccc(O)c(O)c2)oc2cc(O)cc(O)c12` [Luteolin, luteolin]: the “ABTS radical scavenging activity IC50” value was determined as 2.20 µg/mL. For the same compound, the EC50 in the data set with DENV [1] (setting [6]) was 20.8 µg/mL. In addition, in the data set on DENV [1] (setting [7]), the EC50 is 72.7 ± 7.76 µM. The “DPPH scavenging activity IC50” value in data set [2] worked out at 9.48 µg/mL. Besides, the EC50 in the data set on DENV [3] (setting [8]) was more than 100 µM. In addition, the EC50 in the data set with DENV [3] (setting [9]) is more than 28.6 µg/mL. Also, the EC50 in the data set on DENV [4] (Dengue virus, Huh-7, 72 h) stood at 107 ± 1.82 µM. Moreover, in the data set on DENV [4] (Dengue virus), the EC50 stood at 30.7 µg/mL. The “inhibition of DNA strand breakage” value in data set [5] is 95.87%. The EC50 with YFV (Yellow fever virus, 72 h) was more than 100 µM.
In the case of `O=C(/C=C/c1ccc(O)c(O)c1)O[C@H](Cc1ccc(O)c(O)c1)C(=O)O` [Rosmarinic acid, rosmarinic acid], the “ABTS radical scavenging activity IC50” value was determined as 3.05 µg/mL. Further, the EC50 with DENV [1] (setting [6]) is 25.6 µg/mL. For the same compound, the EC50 with DENV [1] (setting [7]) was found to be 70.9 ± 9.1 µM. Moreover, in data set [2], the “DPPH scavenging activity IC50” value worked out at 12.28 µg/mL. This compound had a CC50 in “in vitro” of more than 500 µM. For the same compound, the EC50 in the data set on DENV [3] (setting [8]) amounted to 37.1 ± 0.94 µM. The EC50 in the data set with DENV [3] (setting [9]) was found to be 13.4 µg/mL. For the same compound, the EC50 in the data set with DENV [4] (Dengue virus, Huh-7, 72 h) came out at 76.2 ± 7.92 µM. Further, the EC50 in the data set on DENV [4] (Dengue virus) worked out at 27.4 µg/mL. Also, in data set [5], the “inhibition of DNA strand breakage” value is reported as 93.12%. For the same compound, the EC50 with YFV (Yellow fever virus, 72 h) was determined as 98 ± 21 µM.
As to `O=C1C[C@@H](c2ccc(O)cc2)Oc2cc(O)cc(O)c21` [Naringenin, naringenin], the “ABTS radical scavenging activity IC50” value came out at 3.37 µg/mL. The EC50 in the data set on DENV [1] (setting [6]) is 28.5 µg/mL. Moreover, the EC50 in the data set with DENV [1] (setting [7]) is more than 100 µM. The “DPPH scavenging activity IC50” value in data set [2] was 17.45 µg/mL. Besides, the EC50 with DENV [3] (setting [8]) was more than 100 µM. The EC50 in the data set with DENV [3] (setting [9]) was more than 27.2 µg/mL. In the data set with DENV [4] (Dengue virus, Huh-7, 72 h), the EC50 was more than 100 µM. Moreover, the EC50 with DENV [4] (Dengue virus) was more than 27.2 µg/mL. Also, in data set [5], the “inhibition of DNA strand breakage” value came to 92.03%. In the data set with YFV (Yellow fever virus, 72 h), the EC50 came out at 102 ± 34.4 µM.
As to `O=c1c(O)c(-c2ccc(O)cc2)oc2cc(O)cc(O)c12` [Kaempferol, kaempferol], the “ABTS radical scavenging activity IC50” value stood at 1.84 µg/mL. Besides, in the data set with DENV [1] (setting [6]), the EC50 came out at 2.53 µg/mL. The EC50 in the data set on DENV [1] (setting [7]) amounted to 35.5 ± 4.09 µM. Also, the “DPPH scavenging activity IC50” value in data set [2] is 7.40 µg/mL. This compound displayed a CC50 in the data set “in vitro” of 90.4 µM. The same compound yielded a CC50 in the data set with Huh7 cells of more than 6.466 µg/mL. Besides, the EC50 with DENV [3] (setting [8]) turned out to be 3.55 ± 0.07 µM. Moreover, the EC50 in the data set with DENV [3] (setting [9]) was 0.25 µg/mL. For the same compound, the EC50 with DENV [4] (Dengue virus, Huh-7, 72 h) came to 31.5 ± 6.39 µM. For the same compound, the “inhibition of DNA strand breakage” value in data set [5] stood at 97.34%. The EC50 in the data set with YFV (Yellow fever virus, 72 h) is more than 50 µM.
